Here are results for one compound from paper PMC10076467 (EJNMMI Research, 2023).

For one series, the target named is T1, σ1 receptors (Rattus norvegicus, UniProt Q9R0C9).
T1 construct: from tissue; host or cells: brain of living male rats (PET imaging)
Put plainly: ED50 for pre-blocking of ^18F-FTC146 uptake in rat whole brain (PET). The format is in vivo. Particulars: radioligand ^18F-FTC146, AUC 20-120 min. How it is done: For radioligand injection, a polyethylene catheter (PE 10) was inserted into the penile vein of a male rat and then secured with tissue adhesive and tape. For dynamic scanning, the rats were secured with tape in the scanner and kept under 1.5% isoflurane anesthesia via a nose cone. Body temperature was monitored with a rectal probe. All PET scans were performed on a microPET Focus 220 scanner (Siemens Medical Solutions) (7,8). Data were acquired in listmode and reconstructed with Fourier rebinning + 2D filtered backprojection. A transmission scan was acquired before radioligand injection for attenuation correction. Dynamic scanning began at the time of a one-minute intravenous bolus injection of the radioligand under study (55 ± 19 MBq; volume 0.2 to 1.0 mL). The injected mass dose was 3 ± 1 nmol/kg. Challenge agents were administered intravenously 10 minutes before the radioligand for pre-blocking studies or 10 minutes after the radioligand for displacement studies. Tomographic images were analyzed with pixel-wise modeling computer software (PMOD 2.6; PMOD Group). Regions-of-interest in the brain were delineated, and time-activity curves calculated as SUV versus time.
Pre-blocking and displacement experiments were performed to assess radioligand target engagement and radioligand selectivity in vivo. Normally 4 doses of 0.01 mg/kg, 0.05 mg/kg, 0.25 mg/kg, and 1.25 mg/kg were used for preblocking experiments, and only 2 doses of 0.25 mg/kg and 1.25 mg/kg were used for displacement experiments. […] […] […] […] Where data permitted, the dose-response curves were fitted with GraphPad Prism software (version 8.1.1; GraphPad) to estimate the ED50 values. A dummy value of 100 pmol per kg body weight was used for zero concentration of the challenge agent in the construction of these dose-response curves. Numerical data are expressed as mean ± S.D. for n>2, or as mean and range for n = 2.

The next series concerns the target T2, GluN2B (Homo sapiens, UniProt Q05586+Q13224).
T2 construct: expressed in transfected cells; host or cells: transiently transfected mouse fibroblast cells (membrane homogenate)
Set-up: method as in PMID 31924728. As to conditions: cited from earlier work.

The next series has as its system σ2 receptor. Particulars: at 10 µmol; cited from earlier work.
For series [1] the following is noted: cited from earlier work.
For series [2] the following is noted: cited from earlier work. This is another data set of the same source.
The next series addresses T3, GluN2B receptors (Rattus norvegicus, UniProt P35439+Q00960).
T3 construct: from tissue; host or cells: brain of living male rats (PET imaging)
Set-up: method as in PMID 31924728. Particulars: pre-blocking, radioligand ^11C-(S)-NR2B-SMe; cited from earlier work.

T3 sequence (Q00960 27-1482, other chains not shown): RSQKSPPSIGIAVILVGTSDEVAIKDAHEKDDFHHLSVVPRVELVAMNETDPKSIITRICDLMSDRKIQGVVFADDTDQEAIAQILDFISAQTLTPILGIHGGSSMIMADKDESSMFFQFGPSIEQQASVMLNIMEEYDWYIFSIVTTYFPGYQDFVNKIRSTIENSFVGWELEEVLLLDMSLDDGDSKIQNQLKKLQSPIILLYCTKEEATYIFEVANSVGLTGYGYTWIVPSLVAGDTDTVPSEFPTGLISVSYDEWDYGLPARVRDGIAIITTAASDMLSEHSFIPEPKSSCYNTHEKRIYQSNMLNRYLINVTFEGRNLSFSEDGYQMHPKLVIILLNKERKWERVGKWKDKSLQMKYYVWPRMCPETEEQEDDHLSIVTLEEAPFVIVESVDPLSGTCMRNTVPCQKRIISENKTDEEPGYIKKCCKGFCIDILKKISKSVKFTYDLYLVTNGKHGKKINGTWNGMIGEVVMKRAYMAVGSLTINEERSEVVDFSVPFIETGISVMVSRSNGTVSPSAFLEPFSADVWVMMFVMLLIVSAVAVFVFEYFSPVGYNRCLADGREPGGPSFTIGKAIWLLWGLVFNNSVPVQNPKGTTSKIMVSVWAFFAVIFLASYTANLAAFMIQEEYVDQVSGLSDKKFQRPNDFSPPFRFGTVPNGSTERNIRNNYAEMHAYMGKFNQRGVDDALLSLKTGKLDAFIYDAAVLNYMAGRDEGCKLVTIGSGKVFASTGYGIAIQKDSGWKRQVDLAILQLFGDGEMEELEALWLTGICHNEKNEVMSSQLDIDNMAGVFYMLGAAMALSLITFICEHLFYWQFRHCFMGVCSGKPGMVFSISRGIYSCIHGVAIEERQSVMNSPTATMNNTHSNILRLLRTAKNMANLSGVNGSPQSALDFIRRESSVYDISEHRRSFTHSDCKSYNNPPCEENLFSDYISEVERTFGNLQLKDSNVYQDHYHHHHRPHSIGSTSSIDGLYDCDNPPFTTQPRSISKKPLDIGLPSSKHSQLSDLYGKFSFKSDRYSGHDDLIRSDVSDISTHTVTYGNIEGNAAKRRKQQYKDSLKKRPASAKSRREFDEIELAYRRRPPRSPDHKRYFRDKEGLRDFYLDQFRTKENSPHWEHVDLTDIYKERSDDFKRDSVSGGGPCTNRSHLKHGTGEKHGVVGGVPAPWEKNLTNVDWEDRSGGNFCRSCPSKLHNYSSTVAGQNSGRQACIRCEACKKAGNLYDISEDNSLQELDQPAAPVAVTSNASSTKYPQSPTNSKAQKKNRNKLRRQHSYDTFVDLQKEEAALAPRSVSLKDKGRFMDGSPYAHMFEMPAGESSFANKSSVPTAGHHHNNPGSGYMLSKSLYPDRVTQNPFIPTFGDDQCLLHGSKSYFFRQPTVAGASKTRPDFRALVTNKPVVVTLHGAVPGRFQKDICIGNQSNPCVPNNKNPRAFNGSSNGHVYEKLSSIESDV
T1 sequence (Q9R0C9 whole entry): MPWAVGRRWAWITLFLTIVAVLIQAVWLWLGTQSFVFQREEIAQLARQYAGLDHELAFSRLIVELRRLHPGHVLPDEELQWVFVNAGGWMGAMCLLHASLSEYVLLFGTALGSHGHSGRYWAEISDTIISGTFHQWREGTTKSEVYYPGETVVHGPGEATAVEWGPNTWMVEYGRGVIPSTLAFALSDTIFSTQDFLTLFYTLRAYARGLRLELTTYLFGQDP
T2 sequence (Q13224 27-1484, species assumed, other chains not shown): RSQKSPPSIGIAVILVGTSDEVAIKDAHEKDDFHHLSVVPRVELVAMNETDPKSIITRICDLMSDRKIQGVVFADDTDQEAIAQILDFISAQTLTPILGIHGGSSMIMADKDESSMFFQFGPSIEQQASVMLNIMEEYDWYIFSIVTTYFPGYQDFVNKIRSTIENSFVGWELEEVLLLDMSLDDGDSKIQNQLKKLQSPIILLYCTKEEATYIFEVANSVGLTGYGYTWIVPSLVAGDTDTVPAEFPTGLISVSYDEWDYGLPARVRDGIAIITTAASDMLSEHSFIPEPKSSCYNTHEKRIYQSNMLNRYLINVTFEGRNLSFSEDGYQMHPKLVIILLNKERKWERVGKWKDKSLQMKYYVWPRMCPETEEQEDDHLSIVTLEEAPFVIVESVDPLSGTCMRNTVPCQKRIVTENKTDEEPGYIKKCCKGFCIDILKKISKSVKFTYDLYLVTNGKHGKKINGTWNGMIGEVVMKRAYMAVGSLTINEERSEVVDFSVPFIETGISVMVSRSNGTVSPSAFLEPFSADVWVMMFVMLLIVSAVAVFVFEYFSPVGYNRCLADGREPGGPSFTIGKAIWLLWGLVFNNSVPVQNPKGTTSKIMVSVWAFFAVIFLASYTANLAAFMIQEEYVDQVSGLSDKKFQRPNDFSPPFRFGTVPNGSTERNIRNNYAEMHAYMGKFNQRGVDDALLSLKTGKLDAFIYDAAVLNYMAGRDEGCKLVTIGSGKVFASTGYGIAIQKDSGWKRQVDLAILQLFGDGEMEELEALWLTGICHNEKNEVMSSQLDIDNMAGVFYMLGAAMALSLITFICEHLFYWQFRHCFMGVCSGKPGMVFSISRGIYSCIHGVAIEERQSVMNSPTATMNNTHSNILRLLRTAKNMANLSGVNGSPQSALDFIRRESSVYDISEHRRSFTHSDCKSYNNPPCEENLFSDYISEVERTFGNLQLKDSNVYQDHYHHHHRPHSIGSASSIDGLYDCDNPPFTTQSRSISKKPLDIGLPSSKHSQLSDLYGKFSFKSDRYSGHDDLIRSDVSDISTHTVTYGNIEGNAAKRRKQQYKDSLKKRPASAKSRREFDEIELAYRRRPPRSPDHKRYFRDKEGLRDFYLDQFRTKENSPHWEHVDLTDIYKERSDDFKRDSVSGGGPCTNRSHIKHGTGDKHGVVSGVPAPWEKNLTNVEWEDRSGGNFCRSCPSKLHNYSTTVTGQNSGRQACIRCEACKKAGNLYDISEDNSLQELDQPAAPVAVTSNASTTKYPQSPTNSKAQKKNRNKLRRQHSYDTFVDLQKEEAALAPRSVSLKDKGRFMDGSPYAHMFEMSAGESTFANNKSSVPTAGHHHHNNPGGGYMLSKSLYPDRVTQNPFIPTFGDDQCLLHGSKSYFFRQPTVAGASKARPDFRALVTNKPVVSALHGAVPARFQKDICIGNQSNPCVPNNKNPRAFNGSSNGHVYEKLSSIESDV

Regarding `CSc1ccc2c(c1)CCN(CCCCc1ccc(C)cc1)CC2O` (racemic) [NR2B-SMe, (R,S)-7-thiomethoxy-3-(4-(4-methyl-phenyl)butyl)-2,3,4,5-tetrahydro-1H-benzo[d]azepin-1-ol], on σ1 receptors, the “ED50 in rat whole brain in vivo ^18F-FTC146” value is 1064 nmol/kg. Besides, at GluN2B, the Ki was 2.2 nM. Also, the σ2 inhibition with σ2 receptor is 90%. Further, the pKa in series [1] is reported as 5.03. The cLogD7.4 in series [2] is 3.41. Besides, the “ED50 in rat whole brain in vivo ^11C-(S)-NR2B-SMe” value on GluN2B receptors was 9.5 nmol/kg.
